# Biological target: T1, NHE-1 (Homo sapiens, UniProt P19634)
# T1 construct: endogenous in cells; host or cells: HT-29
# Experiment: Evaluation of NHE-1 Inhibition (pHi) in HT-29 cells
# Assay type: cell-based
# Conditions: BCECF dye, 50% inhibition of the intracellular pH recovery, read-out: NHE1 HT29 pHi IC50
# Experimental: Evaluation of NHE-1 Inhibition (pHi)
# HT-29 cells resuspended in DMEM supplemented with 10% FBS, 1% NEAA, and 1% Penn-Strep are seeded at 10,000 cells/well in collagen coated 384 well plates which are then incubated for 24 hours at 37° C. The next day, the medium is removed and the cells are dye (Invitrogen's BCECF) loaded for 30 minutes at 37° C., washed three times with an acid loading buffer (10 mM NH4Cl, 1.8 mM CaCl2, 90 mM Choline Cl, 5 mM Glucose, 15 mM Hepes, 5 mM KCl, 1 mM MgCl2, adjusted to pH 7.5 with KOH) and further incubated at RT for 30 minutes.
# At the end of the incubation, the buffer is removed and 5 uL of fresh acid loading buffer is added to each well to prevent the dessication of the cells. The plate is placed in a Hamamatsu FDSS6000 instrument and candidate compounds are added to the cells.
# T1 sequence (P19634 whole entry): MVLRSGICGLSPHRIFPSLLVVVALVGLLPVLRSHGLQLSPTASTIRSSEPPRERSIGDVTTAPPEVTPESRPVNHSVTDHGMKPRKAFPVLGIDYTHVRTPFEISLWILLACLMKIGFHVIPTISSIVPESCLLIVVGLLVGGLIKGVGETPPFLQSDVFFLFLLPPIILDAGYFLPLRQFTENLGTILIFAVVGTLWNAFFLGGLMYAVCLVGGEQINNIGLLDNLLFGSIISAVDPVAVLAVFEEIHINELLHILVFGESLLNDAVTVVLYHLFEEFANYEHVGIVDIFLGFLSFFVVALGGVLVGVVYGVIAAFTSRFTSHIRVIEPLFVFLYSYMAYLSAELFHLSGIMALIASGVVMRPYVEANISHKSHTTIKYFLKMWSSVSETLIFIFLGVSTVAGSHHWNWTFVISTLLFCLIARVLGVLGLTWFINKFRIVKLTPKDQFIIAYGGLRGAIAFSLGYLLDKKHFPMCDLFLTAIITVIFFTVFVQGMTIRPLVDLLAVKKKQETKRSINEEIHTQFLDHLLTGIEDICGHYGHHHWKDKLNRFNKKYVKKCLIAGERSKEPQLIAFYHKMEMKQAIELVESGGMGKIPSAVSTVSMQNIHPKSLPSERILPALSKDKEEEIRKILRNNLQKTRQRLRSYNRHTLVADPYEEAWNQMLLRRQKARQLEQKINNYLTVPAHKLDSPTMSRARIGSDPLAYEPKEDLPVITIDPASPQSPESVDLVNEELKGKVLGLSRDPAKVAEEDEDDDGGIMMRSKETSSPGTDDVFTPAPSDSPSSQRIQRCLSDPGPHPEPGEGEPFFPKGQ
row,Compound,IC50 [nM]
1,COc1ccc(CC(N)C(=O)N2CCC(c3ccc(C(=O)NC(=N)N)cc3C(F)(F)F)CC2)cc1 (stereo not drawn),37
2,"CN(C)C(=O)c1ccc(C(=O)N2CCC(c3ccc(C(=O)NC(=N)N)cc3C(F)(F)F)CC2)cc1 [4-[4-(4-Guanidinocarbonyl-2-trifluoromethyl-phenyl)-piperidine-1-carbonyl]-N,N-dimethyl-benzamide]",48
3,CNC(=O)c1ccc(C(=O)N2CCC(c3ccc(C(=O)NC(=N)N)cc3C(F)(F)F)CC2)cc1 [4-[4-(4-Guanidinocarbonyl-2-trifluoromethyl-phenyl)-piperidine-1-carbonyl]-N-methyl-benzamide],43
4,CNS(=O)(=O)c1ccc(C(=O)N2CCC(c3ccc(C(=O)NC(=N)N)cc3C(F)(F)F)CC2)cc1 [4-[4-(4-Guanidinocarbonyl-2-trifluoromethyl-phenyl)-piperidine-1-carbonyl]-N-methyl-benzenesulfonamide],51
5,COC(=O)c1ccc(C(=O)N2CCC(c3ccc(C(=O)NC(=N)N)cc3C(F)(F)F)CC2)cc1 [4-[4-(4-Guanidinocarbonyl-2-trifluoromethyl-phenyl)-piperidine-1-carbonyl]-benzoic acid methyl ester],183
6,CNS(=O)(=O)c1ccc(Oc2ccc(C(=O)N3CCC(c4ccc(C(=O)NC(=N)N)cc4C(F)(F)F)CC3)cn2)cc1 [4-{5-[4-(4-Guanidinocarbonyl-2-trifluoromethyl-phenyl)-piperidine-1-carbonyl]-pyridin-2-yloxy}-N-methyl-benzenesulfonamide],92
7,COc1cc(C2CCN(C(=O)[C@H](OC(C)=O)c3ccccc3)CC2)c(C(F)(F)F)cc1C(=O)NC(=N)N [(R)-Acetic acid 2-[4-(4-guanidinocarbonyl-5-methoxy-2-trifluoromethyl-phenyl)-piperidin-1-yl]-2-oxo-1-phenyl-ethyl ester],110

# Further molecules by falling IC50, results first:
row,IC50 [nM],Compound
1,36,"CN(C)S(=O)(=O)c1ccc(C(=O)N2CCC(c3ccc(C(=O)NC(=N)N)cc3C(F)(F)F)CC2)cc1 [4-[4-(4-Guanidinocarbonyl-2-trifluoromethyl-phenyl)-piperidine-1-carbonyl]-N,N-dimethyl-benzenesulfonamide]"
2,28,N=C(N)NC(=O)c1ccc(C2CCN(C(=O)c3ccc(C(N)=O)cc3)CC2)c(C(F)(F)F)c1 [4-[4-(4-Guanidinocarbonyl-2-trifluoromethyl-phenyl)-piperidine-1-carbonyl]-benzamide]
3,27,N=C(N)NC(=O)c1ccc(C2CCN(C(=O)c3ccc(C(=O)O)cc3)CC2)c(C(F)(F)F)c1 [4-[4-(4-Guanidinocarbonyl-2-trifluoromethyl-phenyl)-piperidine-1-carbonyl]-benzoic acid]
4,15,N=C(N)NC(=O)c1ccc(C2CCN(C(=O)C(N)CC(N)=O)CC2)c(C(F)(F)F)c1 (stereo not drawn) [3-Amino-4-[4-(4-guanidinocarbonyl-2-trifluoromethyl-phenyl)-piperidin-1-yl]-4-oxo-butyramide]
5,13,N=C(N)NC(=O)c1ccc(C2CCN(C(=O)c3ccc(Cl)c(S(N)(=O)=O)c3)CC2)c(C(F)(F)F)c1 [2-Chloro-5-[4-(4-guanidinocarbonyl-2-trifluoromethyl-phenyl)-piperidine-1-carbonyl]-benzenesulfonamide]
6,13,N=C(N)NC(=O)c1ccc(C2CCN(C(=O)c3ccc(S(N)(=O)=O)cc3)CC2)c(C(F)(F)F)c1 [4-[4-(4-Guanidinocarbonyl-2-trifluoromethyl-phenyl)-piperidine-1-carbonyl]-benzenesulfonamdide]
7,10,CN(C)C(=O)N1CCC(c2ccc(C(=O)NC(=N)N)cc2C(F)(F)F)CC1 [4-(4-Guanidinocarbonyl-2-trifluoromethyl-phenyl)-piperidine-1-carboxylic acid dimethylamide]
8,6,N=C(N)NC(=O)c1ccc(C2CCN(C(N)=O)CC2)c(C(F)(F)F)c1 [4-(4-Guanidinocarbonyl-2-trifluoromethyl-phenyl)-piperidine-1-carboxylic acid amide]
